Measurements taken from patent US20170311603A1 (priority 2014, published 2017).

Columns and labels:
VvPR1 = assay: Induction of plant defense gene VvPR1 in grapevine calli, qRT-PCR (Example 5); assay type: cell-based, V. vinifera L. cv. Chardonnay; conditions: 10 mM in MPM1 medium, 4 days of culture; overexpressed when induction ratio ≧4
VvEDS1 = assay: Induction of plant defense gene VvEDS1 in grapevine calli, qRT-PCR (Example 5); assay type: cell-based, V. vinifera L. cv. Chardonnay; conditions: 10 mM in MPM1 medium, 4 days of culture; overexpressed when induction ratio ≧4

Structure (SMILES)	expression of VvPR1 gene (VvPR1)	expression of VvEDS1 gene (VvEDS1)
O=C(O)c1ccccc1O [salicylic acid]	overexpress	overexpress
O=C1[O][Bi]([OH])[O]c2ccccc21 [bismuth subsalicylate]	overexpress	overexpress
